Patent publication US20080096967A1, “Formulations for Injection of Catecholic Butanes, Including Ndga Compounds, Into Animals” (priority 2005, published 2008)

How the values were obtained:
[1] = 7-Day intravenous infusion study in Beagle dogs: toxicokinetic serum analysis; format: in vivo
Method: This study was conducted to evaluate the toxicokinetic profile of M4N formulated in 30% HP-β-CD and 25% PEG 300 when administered as a single intravenous infusion dose for seven consecutive days in beagle dogs. This study constitutes the first study of this particular formulation of M4N in dogs and was executed to evaluate the toxicity and compare tolerability of a diluted formulation (10 mg/mL versus 5 mg/mL).
A total of twelve beagle dogs (8 male/4 female) were dosed with M4N via a 54-minute (Group 2) or 108-minute (Groups 1, 3 and 4) intravenous infusion. All animals received seven doses, one per day over seven consecutive days.
The following parameters were evaluated: clinical observations and body weights. Test article analysis was performed on Study Days 1 and 7, blood samples (targeting a volume of 2.0 mL) were collected from each animal from an appropriate vessel at the following time points: […]

[2] = parameters: species or system Beagle dogs; settings: in vivo
Method: Following completion of each intravenous infusion, 1 mL of sterile saline was administered as a slow bolus injection to flush the test material from the infusion line into the animal, followed by an injection of heparin-saline solution to fill the infusion line to maintain patency. The animals were observed. Cageside observation included observation for mortality, morbundity, general health, and signs of toxicity. Clinical observations included evaluation of skin and fur characteristics, surgical site, eye and mucous membranes, respiratory, circulatory, autonomic and central nervous systems, and somatomotor and behavior patterns. Blood was collected and placed into 2.5 mL serum separator tubes for serum M4N concentration analysis. The tubes were inverted several times, stored on wet ice, and centrifuged at about 3000 rpm for about 10 min. at 4° C. Serum was transferred to microcentrifuge tubes and stored at −75±10° C.
Samples were shipped on dry ice to the Analytical Chemistry Laboratory of GeneLogic (Gaithersburg, Md., U.S.A.) for test article analysis. The method involved treating aliquots of dog serum, at least 0.5 mL, with acetonitrile, filtering, and injecting the filtrate onto an HPLC column with tandem mass-spectrometry detection (LC-MS/MS). The analyte was quantified using an external standard curve with triazolam as an internal standard.

[3] = 40 mg/mL M4N/PEG 300 stability: RP-HPLC analysis; format: physicochemical
Method: The stability of 40 mg/mL M4N dissolved in 100% PEG 300 was evaluated up to 24 hours incubation at 30° C., 45° C. and 60° C. A stock 40 mg/mL M4N in PEG 300 was prepared at 60° C., following the procedure set forth in Example 17. Subsequently, aliquots were removed and incubated at the appropriate temperature. Samples were rotated at 450 rpm during the entire course of incubation. Visual observations and RP-HPLC data were collected throughout. […] The formation of crystals coincided with a loss of soluble M4N (Table 30). The 40 mg/mL M4N/PEG 300 samples incubated at 45° C. and 60° C. were stable after 24 hours incubation as assessed by visual observations and RP-HPLC analysis (Tables 29 and 30).

[4] = M4N stability in HP-β-CD/PEG 300 buffer solutions at 60° C. (RP-HPLC, pH); format: physicochemical; settings: for M4N concentration (stability): 25% PEG300
Method: The stability of 10 mg/mL M4N (prepared in a ratio of 75:25 40% HP-β-CD: 40 mg/mL M4N PEG 300) in 15 mM buffer solutions was evaluated following incubation at 60° C.
2.0 g HP-β-CD was weighed into 5 mL volumetric flasks on an OHAUS Analytical Plus Balance. 1 mL of a 100 mM buffer solution was added to each flask. Each sample was q.s. to 5 mL with WFI.
750 μL 40% HP-β-CD buffered solution was placed in 1.5 mL polypropylene microtubes. […] After gentle inversion of the sample tubes, the pH of each solution was measured using a Orion, Model 420A pH meter. An initial aliquot was removed for RP-HPLC analysis. Test samples were then placed in a Precision 60° C. incubator. The M4N stability was evaluated by RP-HPLC. At each time point, the samples were centrifuged for 2 minutes at 13,000 rpm to pellet any solid M4N.

## COc1ccc(C[C@@H](C)[C@@H](C)Cc2ccc(OC)c(OC)c2)cc1OC [Formulation M4N, meso-1,4-bis(3,4-dimethoxyphenyl)-2,3-dimethylbutane]
[1]; Group 2, 45 mg/kg (10 mg/mL), 54-minute IV infusion
  peak test article concentration in serum: 33420 ng/mL
[1]; Group 2, end of infusion
  time of maximum concentration: 0.9 h
[1]; Group 3, 90 mg/kg (10 mg/mL), 108-minute IV infusion
  peak test article concentration in serum: 46704 ng/mL
[1]; Group 4, 45 mg/kg (5 mg/mL), 108-minute IV infusion
  peak test article concentration in serum: 18759 ng/mL
[1]; Groups 3 and 4, end of infusion
  time of maximum concentration: 1.8 h
[2]; dog
  M4N in serum 16 hr following the infusion period: still detectable
[2]
  M4N serum levels, female dog vs male dog: higher in the female dog
[3]; 40 mg/mL M4N/PEG 300, 30° C., 45° C. and 60° C.
  impurities peaks: No changes
[3]; 40 mg/mL M4N/PEG 300, 24 hours at 30° C.
  loss in soluble M4N: > 5%
[4]; 10 mg/mL M4N in HP-β-CD/PEG 300, 15 mM buffers, 14 day incubation at 60° C.
  change in concentration of M4N solutions: slight decrease
[4]; 15 mM Acetate, pH 5, 30% HP-β-CD, 0 days at 60° C.
  M4N concentration (stability): 10.6 mg/mL
[4]; 15 mM Acetate, pH 5, 30% HP-β-CD, 2 days at 60° C.
  M4N concentration (stability): 10.2 mg/mL
[4]; 15 mM Acetate, pH 5, 30% HP-β-CD, 6 days at 60° C.
  M4N concentration (stability): 9.6 mg/mL
[4]; 15 mM Acetate, pH 5, 30% HP-β-CD, 10 days at 60° C.
  M4N concentration (stability): 9.7 mg/mL
[4]; 15 mM Acetate, pH 5, 30% HP-β-CD, 14 days at 60° C.
  M4N concentration (stability): 9.6 mg/mL
[4]; 15 mM Acetate, pH 6, 30% HP-β-CD, 0 days at 60° C.
  M4N concentration (stability): 10.5 mg/mL
[4]; 15 mM Acetate, pH 6, 30% HP-β-CD, 2 days at 60° C.
  M4N concentration (stability): 10.1 mg/mL
[4]; 15 mM Acetate, pH 6, 30% HP-β-CD, 6 days at 60° C.
  M4N concentration (stability): 9.7 mg/mL
[4]; 15 mM Acetate, pH 6, 30% HP-β-CD, 10 days at 60° C.
  M4N concentration (stability): 9.7 mg/mL
[4]; 15 mM Acetate, pH 6, 30% HP-β-CD, 14 days at 60° C.
  M4N concentration (stability): 9.6 mg/mL
[4]; 15 mM Borate, pH 10, 30% HP-β-CD, 0 days at 60° C.
  M4N concentration (stability): 10.5 mg/mL
[4]; 15 mM Borate, pH 10, 30% HP-β-CD, 2 days at 60° C.
  M4N concentration (stability): 10.1 mg/mL
[4]; 15 mM Borate, pH 10, 30% HP-β-CD, 6 days at 60° C.
  M4N concentration (stability): 9.7 mg/mL
[4]; 15 mM Borate, pH 10, 30% HP-β-CD, 10 days at 60° C.
  M4N concentration (stability): 9.6 mg/mL
[4]; 15 mM Borate, pH 10, 30% HP-β-CD, 14 days at 60° C.
  M4N concentration (stability): 9.6 mg/mL
[4]; 15 mM Borate, pH 11, 30% HP-β-CD, 0 days at 60° C.
  M4N concentration (stability): 10.5 mg/mL
[4]; 15 mM Borate, pH 11, 30% HP-β-CD, 2 days at 60° C.
  M4N concentration (stability): 10.3 mg/mL
[4]; 15 mM Borate, pH 11, 30% HP-β-CD, 6 days at 60° C.
  M4N concentration (stability): 9.8 mg/mL
[4]; 15 mM Borate, pH 11, 30% HP-β-CD, 10 days at 60° C.
  M4N concentration (stability): 9.5 mg/mL
[4]; 15 mM Borate, pH 11, 30% HP-β-CD, 14 days at 60° C.
  M4N concentration (stability): 9.4 mg/mL
[4]; 15 mM Phosphate, pH 3, 30% HP-β-CD, 0 days at 60° C.
  M4N concentration (stability): 10.3 mg/mL
[4]; 15 mM Phosphate, pH 3, 30% HP-β-CD, 2 days at 60° C.
  M4N concentration (stability): 10.1 mg/mL
[4]; 15 mM Phosphate, pH 3, 30% HP-β-CD, 6 days at 60° C.
  M4N concentration (stability): 9.6 mg/mL
[4]; 15 mM Phosphate, pH 3, 30% HP-β-CD, 10 days at 60° C.
  M4N concentration (stability): 9.7 mg/mL
[4]; 15 mM Phosphate, pH 3, 30% HP-β-CD, 14 days at 60° C.
  M4N concentration (stability): 9.6 mg/mL
[4]; 15 mM Phosphate, pH 4, 30% HP-β-CD, 0 days at 60° C.
  M4N concentration (stability): 10.5 mg/mL
[4]; 15 mM Phosphate, pH 4, 30% HP-β-CD, 2 days at 60° C.
  M4N concentration (stability): 10.1 mg/mL
[4]; 15 mM Phosphate, pH 4, 30% HP-β-CD, 6 days at 60° C.
  M4N concentration (stability): 9.6 mg/mL
[4]; 15 mM Phosphate, pH 4, 30% HP-β-CD, 10 days at 60° C.
  M4N concentration (stability): 9.7 mg/mL
[4]; 15 mM Phosphate, pH 4, 30% HP-β-CD, 14 days at 60° C.
  M4N concentration (stability): 9.6 mg/mL
[4]; 15 mM Phosphate, pH 7, 30% HP-β-CD, 0 days at 60° C.
  M4N concentration (stability): 10.5 mg/mL
[4]; 15 mM Phosphate, pH 7, 30% HP-β-CD, 2 days at 60° C.
  M4N concentration (stability): 10.3 mg/mL
[4]; 15 mM Phosphate, pH 7, 30% HP-β-CD, 6 days at 60° C.
  M4N concentration (stability): 9.7 mg/mL
[4]; 15 mM Phosphate, pH 7, 30% HP-β-CD, 10 days at 60° C.
  M4N concentration (stability): 9.7 mg/mL
[4]; 15 mM Phosphate, pH 7, 30% HP-β-CD, 14 days at 60° C.
  M4N concentration (stability): 9.7 mg/mL
[4]; 15 mM Phosphate, pH 8, 30% HP-β-CD, 0 days at 60° C.
  M4N concentration (stability): 10.6 mg/mL
[4]; 15 mM Phosphate, pH 8, 30% HP-β-CD, 2 days at 60° C.
  M4N concentration (stability): 10.4 mg/mL
[4]; 15 mM Phosphate, pH 8, 30% HP-β-CD, 6 days at 60° C.
  M4N concentration (stability): 9.7 mg/mL
[4]; 15 mM Phosphate, pH 8, 30% HP-β-CD, 10 days at 60° C.
  M4N concentration (stability): 9.8 mg/mL
[4]; 15 mM Phosphate, pH 8, 30% HP-β-CD, 14 days at 60° C.
  M4N concentration (stability): 9.6 mg/mL
[4]; 15 mM Phosphate, pH 9, 30% HP-β-CD, 0 days at 60° C.
  M4N concentration (stability): 10.4 mg/mL
[4]; 15 mM Phosphate, pH 9, 30% HP-β-CD, 2 days at 60° C.
  M4N concentration (stability): 10.2 mg/mL
[4]; 15 mM Phosphate, pH 9, 30% HP-β-CD, 6 days at 60° C.
  M4N concentration (stability): 9.7 mg/mL
[4]; 15 mM Phosphate, pH 9, 30% HP-β-CD, 10 days at 60° C.
  M4N concentration (stability): 9.8 mg/mL
[4]; 15 mM Phosphate, pH 9, 30% HP-β-CD, 14 days at 60° C.
  M4N concentration (stability): 9.7 mg/mL
[4]; 14 day incubation at 60° C.
  M4N impurities, share of total peak area: less than 0.1%
[4]; 14 days at 60° C.
  apparent sample pH during the incubation period: Little if any changes
[4]; WFI, 30% HP-β-CD, 0 days at 60° C.
  M4N concentration (stability): 10.4 mg/mL
[4]; WFI, 30% HP-β-CD, 2 days at 60° C.
  M4N concentration (stability): 10.1 mg/mL
[4]; WFI, 30% HP-β-CD, 6 days at 60° C.
  M4N concentration (stability): 9.9 mg/mL
[4]; WFI, 30% HP-β-CD, 10 days at 60° C.
  M4N concentration (stability): 9.7 mg/mL
[4]; WFI, 30% HP-β-CD, 14 days at 60° C.
  M4N concentration (stability): 9.6 mg/mL
